In PMC11721617, “Novel isobavachalcone derivatives induce apoptosis and necroptosis in human non-small cell lung cancer H1975 cells” (Journal of Enzyme Inhibition and Medicinal Chemistry, 2023):
Read-outs that look alike come from different tables or passages of the source.

How the values were obtained:
[1] = system: A549; test: MTT assay, cytotoxic activity; format: cell-based, human; details: Homo sapiens; A549 cells, 72 h, MTT
Protocol: (§1) Four cell lines (H1975, A549, PC9, and Aml-12) were cultured in RPMI 1640 medium containing 10% foetal bovine serum (FBS) and 1% penicillin/streptomycin in an atmosphere with 5% CO2 and 95% relative humidity at 37 °C.
(§2) Cell viability was examined using the MTT assay. The cells grown in the logarithmic phase were seeded in 96-well plates at a density of 5 × 10^3 per well. The cells were treated with various concentrations (0, 5, 10, 20, 40, and 80 μM) of the compound at different times, respectively. At the end of time point, MTT solution (5 mg/ml) was added to each well and incubated at 37 °C for 4 h. Next, the media was removed, and formazan was dissolved in DMSO. Finally, absorbance was measured with a microplate spectrophotometer at 490 nm (Synergy HT, BioTek, VT, USA).

[2] = system: PC9; test: MTT assay, cytotoxic activity; format: cell-based; details: Homo sapiens, PC-9, PC9 cells, 72 h
Protocol: as §1, §2

[3] = system: H1975; test: MTT assay, cytotoxic activity / cell viability; format: cell-based, human; details: Homo sapiens, NCI-H1975
Protocol: as §1, §2

[4] = MTT assay, cytotoxic activity on normal hepatocytes; format: cell-based, mouse; details: Aml-12 cells (normal hepatocytes); normal mouse hepatocytes Aml-12 cells, 72 h
Protocol: as §1, §2

[5] = H1975 cells, 72 h, MTT, read-out: Cytotoxic activity IC50, H1975

Row | SMILES | IC50 [1] [µM] | IC50 [2] [µM] | IC50 [3, 5] [µM] | IC50 ([3]; read-out: IC50 values against H1975 and A549 cell lines (range over both)) [µM] | IC50 at 72 h [4] [µM]
1 | COc1ccc(/C=C/C(=O)c2ccc(O)c(CC=C(C)C)c2O)cc1 [Compound 1, (E)-1-(2,4-Dihydroxy-3-(3-methylbut-2-en-1-yl)phenyl)-3-(4-methoxyphenyl)prop-2-en-1-one] | 41.6 | 14.3 | 38 | – | –
2 | COc1ccc(C(=O)/C=C/c2ccc(O)cc2)c(O)c1CC=C(C)C [Compound 2, (E)-1-(2-Hydroxy-4-methoxy-3-(3-methylbut-2-en-1-yl)phenyl)-3-(4-hydroxyphenyl) prop-2-en-1-one] | > 50 | 35.3 | 40.5 | – | –
3 | COc1ccc(/C=C/C(=O)c2ccc(OC)c(CC=C(C)C)c2O)cc1 [Compound 3, (E)-1-(2-Hydroxy-4-methoxy-3-(3-methylbut-2-en-1-yl)phenyl)-3-(4-methoxyphenyl) prop-2-en-1-one] | > 50 | > 50 | > 50 | – | –
4 | CC(C)=CCc1c(OCc2ccccc2)ccc(C(=O)/C=C/c2ccc(OCc3ccccc3)cc2)c1O [Compound 4, (E)-1-(4-(Benzyloxy)-2-hydroxy-3-(3-methylbut-2-en-1-yl)phenyl)-3-(4-(benzyl-oxy)phenyl)prop-2-en-1-one] | > 50 | > 50 | > 50 | – | –
5 | CC(C)=CCc1c(O)ccc(C(=O)/C=C/c2ccc(OCc3ccccc3)cc2)c1O [Compound 5, (E)-3-(4-(Benzyloxy)phenyl)-1-(2,4-dihydroxy-3-(3-methylbut-2-en-1-yl)phenyl)prop-2-en-1-one] | 33.1 | 24.9 | 13.6 | – | –
6 | CC(C)=CCc1c(O)c(C=O)cc(C(=O)/C=C/c2ccc(O)cc2)c1O [Compound 6, (E)-2,4-Dihydroxy-5-(3-(4-hydroxyphenyl)acryloyl)-3-(3-methylbut-2-en-1-yl)benzylaldehyde] | 24.1 | 18.4 | 5.79 | – | –
7 | CC(C)=CCc1c(O)c(/C=N/NC(=N)N)cc(C(=O)/C=C/c2ccc(O)cc2)c1O [Compound 7, 2-((E)-2,4-Dihydroxy-5-((E)-3-(4-hydroxyphenyl)acryloyl)-3-(3-methylbut-2-en-1-yl)benzylidene)hydrazine-1-carboximidamide] | 15 | 8.3 | 7.33 | 4.35 to 15 | –
8 | CC(C)=CCc1c(O)c(C(=O)/C=C/c2ccc(O)cc2)cc(C(c2ccncc2)N2CCOCC2)c1O (stereo not drawn) [Compound 8, (E)-1-(2,4-Dihydroxy-3-(3-methylbut-2-en-1-yl)-5-(morpholino(pyridin-4-yl)methyl)phenyl)-3-(4-hydroxyphenyl)prop-2-en-1-one] | 39.2 | 29.9 | 13.8 | – | –
9 | CC(C)=CCc1c(O)c(C(=O)/C=C/c2ccc(O)cc2)cc(C(c2ccccc2)N2CCOCC2)c1O (stereo not drawn) [Compound 9, (E)-1-(2,4-Dihydroxy-3-(3-methylbut-2-en-1-yl)-5-(morpholino(phenyl)methyl)phenyl)-3-(4-hydroxyphenyl)prop-2-en-1-one] | 26.9 | 22.8 | 12.1 | – | –
10 | CC(C)=CCc1c(O)c(C(=O)/C=C/c2ccc(O)cc2)cc(C(c2ccc(Br)cc2)N2CCOCC2)c1O (stereo not drawn) [Compound 10, (E)-1-(5-((4-Bromophenyl)(morpholino)methyl)-2,4-dihydroxy-3-(3-methylbut-2-en-1-yl)phenyl)-3-(4-hydroxyphenyl)prop-2-en-1-one] | 34.8 | 18.6 | 6.76 | – | –
11 | CC(C)=CCc1c(O)c(C(=O)/C=C/c2ccc(O)cc2)cc(C(c2ccc(Cl)cc2)N2CCOCC2)c1O (stereo not drawn) [Compound 11, (E)-1-(5-((4-Chlorophenyl)(morpholino)methyl)-2,4-dihydroxy-3-(3-methylbut-2-en-1-yl)phenyl)-3-(4-hydroxyphenyl)prop-2-en-1-one] | 21.8 | 19.7 | 11.4 | – | –
12 | CC(C)=CCc1c(O)c(C(=O)/C=C/c2ccc(O)cc2)cc(C(c2ccc(F)cc2)N2CCOCC2)c1O (stereo not drawn) [Compound 12, (E)-1-(5-((4-Fluorophenyl)(morpholino)methyl)-2,4-dihydroxy-3-(3-methylbut-2-en-1-yl)phenyl)-3-(4-hydroxyphenyl)prop-2-en-1-one] | 33 | 20.7 | 12.1 | – | –
13 | CC(C)=CCc1c(O)c(C(=O)/C=C/c2ccc(O)cc2)cc(C(c2ccc([N+](=O)[O-])cc2)N2CCOCC2)c1O (stereo not drawn) [Compound 13, (E)-1-(2,4-Dihydroxy-3-(3-methylbut-2-en-1-yl)-5-(morpholino(4-nitrophenyl)methyl)phenyl)-3-(4-hydroxyphenyl)prop-2-en-1-one] | 44.5 | 23.5 | 7.39 | – | –
14 | CC(C)=CCc1c(O)c(C(=O)/C=C/c2ccc(O)cc2)cc(C(c2ccc(C(=O)O)cc2)N2CCOCC2)c1O (stereo not drawn) [Compound 14, (E)-4-((2,4-Dihydroxy-5-(3-(4-hydroxyphenyl)acryloyl)-3-(3-methylbut-2-en-1-yl)phenyl)(morpholino)methyl)benzoic acid] | > 50 | > 50 | 23.6 | – | –
15 | COc1ccc(C(c2cc(C(=O)/C=C/c3ccc(O)cc3)c(O)c(CC=C(C)C)c2O)N2CCOCC2)cc1 (stereo not drawn) [Compound 15, (E)-1-(2,4-Dihydroxy-5-((4-methoxyphenyl)(morpholino)methyl)-3-(3-methylbut-2-en-1-yl)phenyl)-3-(4-hydroxyphenyl)prop-2-en-1-one] | 28.9 | 23.2 | 11.7 | – | –
16 | CC(C)=CCc1c(O)c(C(=O)/C=C/c2ccc(O)cc2)cc(C(c2ccc(C(F)(F)F)cc2)N2CCOCC2)c1O (stereo not drawn) [Compound 17, (E)-1-(2,4-Dihydroxy-3-(3-methylbut-2-en-1-yl)-5-(morpholino(4-(trifluoromethyl)phenyl)methyl)phenyl)-3-(4-hydroxyphenyl)prop-2-en-1-one] | 30.1 | 20.6 | 7.01 | – | –
17 | CC(C)=CCc1c(O)ccc(C(=O)/C=C/c2ccc(O)cc2)c1O [IBC, isobavachalcone] | 21.7 | 9.22 | 17.9 | – | 17.7 ± 1.2
18 | CC(=O)O[C@H]1C(=O)[C@@]2(C)[C@H]([C@H](OC(=O)c3ccccc3)[C@]3(O)C[C@H](OC(=O)[C@H](O)[C@@H](NC(=O)c4ccccc4)c4ccccc4)C(C)=C1C3(C)C)[C@]1(OC(C)=O)CO[C@@H]1C[C@@H]2O [Paclitaxel, reference compound] | 1.61 | 0.06 | 0.01 | – | 2.51 ± 0.13
